Data taken from ChEMBL document CHEMBL1133160, “Molecular modeling of the aldose reductase-inhibitor complex based on the X-ray crystal structure and studies with single-site-directed mutants” (J Med Chem, 2000).
pIC50: −log10 of the molar value.

Assays:
[1] = Inhibitory Activity ratio (IC50 ratio) calculated by Human recombinant aldose reductase wild type against Mutant Aldose reductase (W20Y)
[2] = Inhibitory Activity ratio (IC50 ratio) calculated by Human recombinant aldose reductase wild type against Mutant Aldose reductase (W20A).
[3] = target: Aldo-keto reductase family 1 member B1 (Homo sapiens, UniProt P15121); assay: Inhibitory Activity against Human recombinant Aldose Reductase (wild type)
[4] = Inhibitory Activity ratio (IC50 ratio) calculated by Human recombinant aldose reductase wild type against Mutant Aldose reductase (W111A)
[5] = Inhibitory Activity ratio (IC50 ratio) calculated by Human recombinant aldose reductase wild type against Mutant Aldose reductase (W111Y).

Compound | Ratio [1] | Ratio [2] | pIC50 [3] | Ratio [4] | Ratio [5]
O=C(O)CC1C(=O)N(Cc2ccc(Br)cc2F)C(=O)c2ccc(F)cc21 (stereo not given) | 21 | 311 | 6.64 | 120 | 193
O=C(O)Cc1nn(Cc2ccc(Br)cc2F)c(=O)c2ccccc12 [PONALRESTAT] | 47 | 1770 | 7.18 | 1770 | 58
CN1C(=O)c2ccc(Cl)cc2C2(CC(=O)NC2=O)C1=O (stereo not given) | 1.5 | 1070 | 7.11 | > 1280 | 324
O=C1NC(=O)C2(N1)c1cc(F)ccc1-c1ccc(F)cc12 | 48 | 9140 | 7.26 | 781 | 1960
O=C1CC2(C(=O)N1)C(=O)N(Cc1nc3cc(C(F)(F)F)ccc3s1)C(=O)c1ccc(F)cc12 (stereo not given) | 0.1 | 1 | 6.84 | 19 | 2
CN1C(=O)c2ccc(F)cc2C2(CC(=O)NC2=O)C1=O (stereo not given) | 3 | 1670 | 7.14 | 2730 | 773
O=C(O)Cn1c(=O)n(Cc2ccc(Br)cc2F)c(=O)c2ccc(Cl)cc21 [ZENARESTAT] | 2.5 | 448 | 7.37 | 786 | 12
